Results from patent US10363239B2, “Method for inhibiting growth of cancer cells” (Pain Therapeutics, Inc., priority 2013, dated 2019).
Where two headings read alike, the source gives them in different places.

Key:
[1] = tested on: mu opiate receptor (MOR); assay: MOR agonist activity using [35S]GTPγS binding assay in striatal membranes; assay type: biochemical; details: for MOR agonist activity ([35S]GTPγS binding), FLNA-Binding Compound as Agonist 1 μM + BFNA: 1 μM compound + 1 μM β-funaltrexamine
In short: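 Striatal membranes (200 μg) were preincubated 5 min at 30 °C in HEPES pH 7.5 with 100 mM NaCl, 1 mM MgCl2 and 0.5 nM [35S]GTPγS, then 5 min more with 0.1–10 μM compound. Gαo was immunoprecipitated and bound radioactivity counted by scintillation.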

[2] = target: FLNA pentapeptide of SEQ ID NO: 1 (Bn-VAKGL) (Homo sapiens, UniProt P21333); assay: FITC-NLX-based FLNA screening assay (inhibition of FITC-naloxone binding to Bn-VAKGL on streptavidin plates); details: 10 nM FITC-NLX
[3] = Series C-1, 0.1 μM compound, relative to DAMGO
[4] = Series C-1, 0.1 μM compound, [35S]GTPγS binding to Gαo, striatal membranes
[5] = Series C-1, 1 μM compound + 1 μM β-FNA
[6] = Series C-1, 1 μM compound + β-FNA, relative to DAMGO + BFNA
[7] = Series C-1, 1 μM compound, relative to DAMGO
[8] = Series C-1, 1 μM compound, [35S]GTPγS binding to Gαo, striatal membranes
[9] = read-out: Percent Binding Inhibition, FLNA-binding compound 0.01 μM
[10] = read-out: Percent Binding Inhibition, FLNA-binding compound 0.1 μM
[11] = read-out: Percent Binding Inhibition, FLNA-binding compound 1 μM
[12] = 0.1 μM compound relative to DAMGO
[13] = 1 μM compound + BFNA relative to DAMGO + BFNA
[14] = 1 μM compound relative to DAMGO
[15] = FLNA-binding compound 0.01 μM, read-out: Percent Binding Inhibition
[16] = FLNA-binding compound 0.1 μM, read-out: Percent Binding Inhibition
[17] = FLNA-binding compound 1 μM, read-out: Percent Binding Inhibition
[18] = Series C-2, 0.1 μM compound, relative to DAMGO
[19] = Series C-2, 0.1 μM compound, [35S]GTPγS binding to Gαo, striatal membranes
[20] = Series C-2, 1 μM compound + 1 μM β-FNA
[21] = Series C-2, 1 μM compound + β-FNA, relative to DAMGO + BFNA
[22] = Series C-2, 1 μM compound, relative to DAMGO
[23] = Series C-2, 1 μM compound, [35S]GTPγS binding to Gαo, striatal membranes
[24] = Series B, 0.1 μM compound, relative to DAMGO
[25] = Series B, 0.1 μM compound, [35S]GTPγS binding to Gαo, striatal membranes
[26] = Series B, 1 μM compound + 1 μM β-FNA
[27] = Series B, 1 μM compound + β-FNA, relative to DAMGO + BFNA
[28] = Series B, 1 μM compound, relative to DAMGO
[29] = Series B, 1 μM compound, [35S]GTPγS binding to Gαo, striatal membranes

Compound | inhibition at 0.01 µM [2, 9] [%] | inhibition at 0.1 µM [2, 10] [%] | inhibition at 1 µM [2, 11] [%] | MOR agonist activity ([35S]GTPγS binding), FLNA-Binding Compound as Agonist 0.1 μM ([1]; 0.1 μM compound) [%] | % DAMGO (0.1 μM) [1, 12] [%] | MOR agonist activity ([35S]GTPγS binding), FLNA-Binding Compound as Agonist 1 μM ([1]; 1 μM compound) [%] | MOR agonist activity ([35S]GTPγS binding), FLNA-Binding Compound as Agonist 1 μM + BFNA [1] [%] | % DAMGO + BFNA [1, 13] [%] | % DAMGO (1 μM) [1, 14] [%] | inhibition at 0.01 µM [2, 15] [%] | inhibition at 0.1 µM [2, 16] [%] | inhibition at 1 µM [2, 17] [%] | further results
O=S(=O)(c1ccccc1)N1CCC2(CC1)OCCN2S(=O)(=O)c1ccccc1 [Compound C0016] | 38.3 | 43.8 | 49.1 | – | – | – | – | – | – | – | – | – | % DAMGO (0.1 μM) [1, 3]: 100.4%; Concentration of FLNA-Binding Compound as Agonist 0.1 μM [1, 4]: 172.7%; Concentration of FLNA-Binding Compound as Agonist 1 μM + BFNA [1, 5]: 96.7%; % DAMGO + BFNA [1, 6]: 150.9%; % DAMGO (1 μM) [1, 7]: 83.3%; Concentration of FLNA-Binding Compound as Agonist 1 μM [1, 8]: 230.5%
CC1CCC(C(C)C)C(OCC(O)CN2CCCCCCC2)C1 (stereo not drawn) [Compound A0014] | – | – | – | 147.0 | 83.2 | 174.9 | 140.8 | 214.3 | 67.5 | 33.8 | 39.7 | 44.7 | –
O=S(=O)(c1ccc(Br)cc1)N1CCC2(CC1)OCCN2S(=O)(=O)c1ccc(Br)cc1 [Compound C0025] | 37.2 | 41.4 | 45.1 | – | – | – | – | – | – | – | – | – | % DAMGO (0.1 μM) [1, 3]: 122.6%; Concentration of FLNA-Binding Compound as Agonist 0.1 μM [1, 4]: 235.7%; Concentration of FLNA-Binding Compound as Agonist 1 μM + BFNA [1, 5]: 80.2%; % DAMGO + BFNA [1, 6]: 182.7%; % DAMGO (1 μM) [1, 7]: 117.5%; Concentration of FLNA-Binding Compound as Agonist 1 μM [1, 8]: 320.7%
O=C(c1ccc([N+](=O)[O-])cc1)N1CCC2(CC1)OCCN2S(=O)(=O)c1ccc([N+](=O)[O-])cc1 [Compound C0022] | 34.5 | 37.6 | 43.9 | – | – | – | – | – | – | – | – | – | % DAMGO (0.1 μM) [1, 3]: 113.5%; Concentration of FLNA-Binding Compound as Agonist 0.1 μM [1, 4]: 194.3%; Concentration of FLNA-Binding Compound as Agonist 1 μM + BFNA [1, 5]: 13.4%; % DAMGO + BFNA [1, 6]: 25.7%; % DAMGO (1 μM) [1, 7]: 123.2%; Concentration of FLNA-Binding Compound as Agonist 1 μM [1, 8]: 328.7%
CC(=O)c1ccc(C(=O)N2CCOC23CCN(S(=O)(=O)c2ccc(C(C)=O)cc2)CC3)cc1 [Compound C0053] | – | – | – | – | – | – | – | – | – | 28.9 | 33.8 | 39.3 | % DAMGO (0.1 μM) [1, 3]: 71.7%; Concentration of FLNA-Binding Compound as Agonist 0.1 μM [1, 4]: 104.0%; Concentration of FLNA-Binding Compound as Agonist 1 μM + BFNA [1, 5]: 93.1%; % DAMGO + BFNA [1, 6]: 211.6%; % DAMGO (1 μM) [1, 7]: 67.5%; Concentration of FLNA-Binding Compound as Agonist 1 μM [1, 8]: 157.2%
COc1ccc(S(=O)(=O)N2CCOC23CCN(C(C)C)CC3)cc1 [Compound C0133M] | – | – | – | – | – | – | – | – | – | 47.8 | 54.9 | 58.5 | % DAMGO (0.1 μM) [1, 18]: 83.2%; MOR agonist activity, percent [35S]GTPγS binding at the stated compound concentration [1, 19]: 139.4%; MOR agonist activity, percent [35S]GTPγS binding at the stated compound concentration [1, 20]: 72.4%; % DAMGO + BFNA [1, 21]: 152.4%; % DAMGO (1 μM) [1, 22]: 96.6%; MOR agonist activity, percent [35S]GTPγS binding at the stated compound concentration [1, 23]: 214.8%
COc1c2c(cc3c1C(CC(=O)c1cccc(C(F)(F)F)c1)[N+](C)(C)CC3)OCO2 (stereo not drawn) [Compound B0006] | 45.1 | 53.5 | 61.3 | – | – | – | – | – | – | – | – | – | % DAMGO (0.1 μM) [1, 24]: 44.8%; MOR agonist activity, percent [35S]GTPγS binding at the stated compound concentration [1, 25]: 77.0%; MOR agonist activity, percent [35S]GTPγS binding at the stated compound concentration [1, 26]: 18.6%; % DAMGO + BFNA [1, 27]: 29.0%; % DAMGO (1 μM) [1, 28]: 47.5%; MOR agonist activity, percent [35S]GTPγS binding at the stated compound concentration [1, 29]: 131.3%
C=CCN1CCC2(CC1)OCCN2S(=O)(=O)c1ccc(OC)cc1 [Compound C0091M] | 38.1 | 39.8 | 46.3 | – | – | – | – | – | – | – | – | – | % DAMGO (0.1 μM) [1, 18]: 118.1%; MOR agonist activity, percent [35S]GTPγS binding at the stated compound concentration [1, 19]: 207.9%; MOR agonist activity, percent [35S]GTPγS binding at the stated compound concentration [1, 20]: 80.8%; % DAMGO + BFNA [1, 21]: 367.3%; % DAMGO (1 μM) [1, 22]: 108.5%; MOR agonist activity, percent [35S]GTPγS binding at the stated compound concentration [1, 23]: 274.4%
CC1CCC(C(C)C)C(OCC(O)CN2CCc3ccccc32)C1 (stereo not drawn) [Compound A0065] | – | – | – | 197.6 | 126.6 | 266.8 | 44.9 | 112.5 | 115.7 | – | – | – | Percent Binding Inhibition ([2]; FLNA-binding compound 0.01 μM): 38.7%; Percent Binding Inhibition ([2]; FLNA-binding compound 0.1 μM): 50.0%; Percent Binding Inhibition ([2]; FLNA-binding compound 1 μM): 50.8%
CC1CCC(C(C)C)C(OCC(O)CN2CCCN(C)CC2)C1 (stereo not drawn) [Compound A0010] | – | – | – | 277.2 | 161.9 | 319.0 | 190.3 | 365.3 | 119.5 | 36 | 36.5 | 39 | –
CC1CCC(C(C)C)C(OCC(O)CN2CCN(CCc3ccccc3)CC2)C1 (stereo not drawn) [Compound A0020] | – | – | – | 168.6 | 100.9 | 217.4 | 67.4 | 194.2 | 88.7 | 37.8 | 38.8 | 45.8 | –
COc1ccc(OCC(O)CN2CCCc3ccccc32)cc1 (stereo not drawn) [Compound A0067] | – | – | – | 170.8 | 99.2 | 254.4 | 33.9 | 98.3 | 115.8 | – | – | – | Percent Binding Inhibition ([2]; FLNA-binding compound 0.01 μM): 32.7%; Percent Binding Inhibition ([2]; FLNA-binding compound 0.1 μM): 39.1%; Percent Binding Inhibition ([2]; FLNA-binding compound 1 μM): 44.3%
COc1ccc(CCC(O)CC2c3c(cc4c(c3OC)OCO4)CC[N+]2(C)C)cc1 (stereo not drawn) [Compound B0049] | 32.2 | 40.1 | 47.1 | – | – | – | – | – | – | – | – | – | % DAMGO (0.1 μM) [1, 24]: 102.8%; MOR agonist activity, percent [35S]GTPγS binding at the stated compound concentration [1, 25]: 181.6%; MOR agonist activity, percent [35S]GTPγS binding at the stated compound concentration [1, 26]: 133.2%; % DAMGO + BFNA [1, 27]: 506.5%; % DAMGO (1 μM) [1, 28]: 143.1%; MOR agonist activity, percent [35S]GTPγS binding at the stated compound concentration [1, 29]: 364.0%
CC1CN(CC(O)COc2cccc(C(F)(F)F)c2)CC(C)O1 (stereo not drawn) [Compound A0051] | – | – | – | 290.4 | 148.0 | 386.6 | 211.6 | 286.3 | 140.1 | 45.9 | 45.4 | 52.1 | –
CC1CCC(C(C)C)C(OCC(O)CN2CCCCC2)C1 (stereo not drawn) [Compound A0005] | 34.2 | 38.2 | 43.8 | 179.7 | 105.0 | 239.2 | 23.5 | 45.1 | 89.6 | – | – | – | –
CC(=O)c1ccc(OCC(O)CN2CC(C)OC(C)C2)cc1 (stereo not drawn) [Compound A0044] | – | – | – | 176.2 | 89.8 | 209.1 | 134.7 | 182.3 | 75.8 | 32.4 | 36.9 | 39.6 | –
CCN(CC)CC(O)COC1CC(C)CCC1C(C)C (stereo not drawn) [Compound A0032] | 43 | 50.3 | 54.5 | 226.9 | 115.6 | 257.8 | 133.0 | 180.0 | 93.4 | – | – | – | –
